Experimental data: patent publication US20120157492A1, “ANTIBIOTIC DRUG” (priority 2008, published 2012)
In brackets after ≈: the same amount, converted by molar mass. Where two headings read alike, the source gives them in different places.

Key:
[1] = system: S. pneumo-Levo (S): Clinical isolate of S. pnemoniae Levofloxacin sensitive strains; assay: MIC by broth microdilution, levofloxacin-sensitive S. pneumoniae; type: cell-based; details: Streptococcus pneumoniae
Method: (§1) Minimum inhibitory concentrations (MICs) were determined by the Broth microdilution method following the guidelines of the Clinical and Laboratory Standards Institute (CLSI). See, e.g., “Methods for Dilution Antimicrobial Susceptibility Tests for Bacterial That Grow Aerobically,” CLSI 2006, Approved standard-7th Ed. M7-A7; and “Performance standards for Antimicrobial Susceptibility Testing,” CLSI 2007, 17th Informational Supplement, M100-S17. Note that since there is no CLSI recommended broth microdilution (BMD) method for N. gonorrhoeae, the BMD method recommended for N. meningitis was used.
(§2) MICs were determined using the broth microdilution method.

[2] = system: MRSA-CIP (R): Clinical isolate of MRSA-ciprofloxacin resistant strain; assay: MIC by broth microdilution, ciprofloxacin-resistant MRSA; type: cell-based, S. aureus; details: Staphylococcus aureus
Method: as §1, §2

[3] = Pharmacokinetic study in rats (IV and PO); type: in vivo; details: male, Sprague-Dawley, rat, plasma; for bioavailability: oral, read-out: oral bioavailability (% F); for half-life: read-out: terminal half-life (t1/2) (converted)
Method: Each of the malic acid salts of Compound 1 and Compound 1′ was dissolved in 0.7% lactic acid and 3% dextrose in water at a pH about 4.5 and 2.5% L-glutamic acid in water at a pH about 5.4 to provide solutions used in this pharmacokinetic study. Male Sprague-Dawley rats (BioLASCO Taiwan Co., Ltd., Taipei, Taiwan) weighing 300-400 g were surgically implanted with polyethylene (PE-50) cannula in the jugular vein for blood sampling while under pentobarbital anesthesia the day before the in-life phase. The rats were treated with a Compound 1 or Compound 1′ solution via intravenous injection (IV) at a dose of 2.5 mg/kg (N=3) or by oral gavage (PO) at a dose of 5 mg/kg (N=4). Dose levels were based on the free base form of the compounds. For PO study, the rats were fasted overnight with water ad libitum, and then dosed the next day. Serial blood samples were collected from animals pre-dose, at 5, 10 (IV only), 15, and 30 min, and at 1, 2, 4, 6, 8, 12, and 24 hours post-dose and heparinized plasma was recovered after centrifugation. Concentrations of the test compound in blood plasma were determined by liquid chromatography-mass spectrometry analysis (MDS SCIEX, API 3000, Applied Biosystems, CA, USA) with a lower limit of quantitation of 2 ng/mL. Standard pharmacokinetic parameters were assessed by non-compartmental analysis using WinNonlin (Version 4.0, Pharsight, CA, USA). The area under the concentration vs. time curve from the time of dosing to infinity (AUC(0-inf)) was calculated by the linear trapezoidal rule. Oral bioavailability (% F) was calculated from the dose-normalized ratio of plasma exposure following oral administration to the intravenous plasma exposure in the rats by the following equation: % F=(AUCpo/AUCiv)×(Div/Dpo)×100% where D is the dose and AUC is the area-under-the-plasma-concentration-time-curve from 0 to infinity.

[4] = system: S. pneumo-Levo (R): Clinical isolate of S. pnemoniae Levofloxacin resistant strains; assay: MIC by broth microdilution, levofloxacin-resistant S. pneumoniae; type: cell-based; details: Streptococcus pneumoniae
Method: as §1, §2

[5] = system: MRSA-CIP (S): Clinical isolate of MRSA-ciprofloxacin sensitive strain; assay: MIC by broth microdilution, ciprofloxacin-sensitive MRSA; type: cell-based; details: Staphylococcus aureus
Method: as §1, §2

[6] = system: 8 ATCC reference strains and 10 clinical strains (E. coli, P. aeruginosa, S. aureus, E. faecalis, E. faecium, S. pneumoniae, H. influenzae, N. gonorrhoeae); assay: Inhibition of bacteria, MIC by broth microdilution (CLSI); type: cell-based
Method: Minimum inhibitory concentrations (MICs) were determined by the Broth microdilution method following the guidelines of the Clinical and Laboratory Standards Institute (CLSI). See, e.g., “Methods for Dilution Antimicrobial Susceptibility Tests for Bacterial That Grow Aerobically,” CLSI 2006, Approved standard-7th Ed. M7-A7; and “Performance standards for Antimicrobial Susceptibility Testing,” CLSI 2007, 17th Informational Supplement, M100-S17. Note that since there is no CLSI recommended broth microdilution (BMD) method for N. gonorrhoeae, the BMD method recommended for N. meningitis was used. Each of the three compounds was dissolved in water before sterile filtration to prepare stock solutions. The stock solutions were stored at −20° C. in aliquots. […] The 2× stock was dispensed at 50 μl per well into the 96-well microtitre plates. The plates were either used fresh or stored at −80° C. before use. To conduct the test, an aliquot of the frozen bacterial isolates was subcultured onto sheep blood agar for all species except that H. influenzae and N. gonorrhoeae were subculuted on chocolate plates. All plate media were purchased from BBL (Becton Dickinson Microbiology System, Cockeysville, Md.). The day before the antimicrobial susceptibility testing, all bacteria were sub-cultured again to obtain fresh starting cultures. […]

Row | Compound | MIC50 [1] [µg/mL] | MIC90 [1] [µg/mL] | MIC50 [2] [µg/mL] | MIC90 [2] [µg/mL] | bioavailability ([3]; 5 mg/kg) [%] | MIC50 [4] [µg/mL] | MIC90 [4] [µg/mL] | MIC50 [5] [µg/mL] | MIC90 [5] [µg/mL] | MICs against the tested bacterial strains, compared with ciprofloxacin [6] | efficacy in inhibiting bacteria compared to malic acid salt of Compound 1′ [6] | AUC(0-inf) ([3]; IV injection, 2.5 mg/kg) [ng·h/mL] | half-life ([3]; IV injection, 2.5 mg/kg) [h] | AUC(0-inf) ([3]; PO, 5 mg/kg) [ng·h/mL] | Cmax ([3]; PO, 5 mg/kg, read-out: maximum of concentration (Cmax)) [ng/mL] | half-life ([3]; PO, 5 mg/kg) [h] | Tmax ([3]; PO, 5 mg/kg, read-out: time at the maximum of concentration (Tmax)) [h]
1 | COc1c(N2C[C@@H](C)C[C@H](N)C2)ccc2c(=O)c(C(=O)O)cn(C3CC3)c12 [Compound 1′, reference compound] | 0.06 (≈ 0.162 µM) | 0.06 (≈ 0.162 µM) | 1 (≈ 2.69 µM) | 2 (≈ 5.38 µM) | 13.2 ± 3.3 | 0.5 (≈ 1.35 µM) | 2 (≈ 5.38 µM) | 0.03 (≈ 0.0808 µM) | 0.06 (≈ 0.162 µM) | – | – | – | – | – | – | – | –
2 | COc1c(N2C[C@H](C)C[C@H](N)C2)ccc2c(=O)c(C(=O)O)cn(C3CC3)c12 [Compound 1, 7-((3S,5R)-3-amino-5-methylpiperidin-1-yl)-1-cyclopropyl-8-methoxy-4-oxo-1,4-dihydroquinoline-3-carboxylic acid] | 0.03 (≈ 0.0808 µM) | 0.06 (≈ 0.162 µM) | 1 (≈ 2.69 µM) | 1 (≈ 2.69 µM) | ~45.9 | 0.25 (≈ 0.673 µM) | 1 (≈ 2.69 µM) | 0.03 (≈ 0.0808 µM) | 0.06 (≈ 0.162 µM) | low MICs comparable with, or even lower than, that of ciprofloxacin | more efficacious in inhibiting in some S. aureus, H. influenzae, and P. aeruginosa stains | 1530 ± 66 | 2.47 ± 0.801 | 1400 ± 464 | 622 ± 170 | 3.58 ± 1.7 | 0.25
3 | C[C@H]1COc2c(N3CCN(C)CC3)c(F)cc3c(=O)c(C(=O)O)cn1c23 [Levo, Levofloxacin] | 16 (≈ 44.3 µM) | – | – | – | – | > 128 | – | – | – | – | – | – | – | – | – | – | –
